In patent US20230203021A1, “GLP-1 RECEPTOR AGONIST, PHARMACEUTICAL COMPOSITION COMPRISING SAME, AND METHOD FOR PREPARING SAME” (LG CHEM, LTD., priority 2020, published 2023) one finds EC50 data, which are given here for four compounds.

In this experiment the target is T1, hGLP-1R (Homo sapiens, UniProt P43220).
T1 construct: expressed in transfected cells; host or cells: CHO-K1
T1 sequence (P43220 24-463): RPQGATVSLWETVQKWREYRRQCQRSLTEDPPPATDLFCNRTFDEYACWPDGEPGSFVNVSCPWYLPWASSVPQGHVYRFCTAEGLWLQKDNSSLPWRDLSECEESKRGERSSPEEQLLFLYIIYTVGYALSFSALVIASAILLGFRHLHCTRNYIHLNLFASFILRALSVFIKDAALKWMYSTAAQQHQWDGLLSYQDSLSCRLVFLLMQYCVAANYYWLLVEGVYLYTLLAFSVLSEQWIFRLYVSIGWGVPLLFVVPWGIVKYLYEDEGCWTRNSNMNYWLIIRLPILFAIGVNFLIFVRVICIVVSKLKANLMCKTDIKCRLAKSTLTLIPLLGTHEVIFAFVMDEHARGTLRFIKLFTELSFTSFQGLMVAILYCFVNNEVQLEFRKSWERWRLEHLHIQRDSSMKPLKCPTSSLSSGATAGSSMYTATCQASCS
The experiment in a line: Measurement of activity of GLP-1R agonist (cell-based luciferase assay), CHO-K1/hGLP-1R/CRE-luciferase cell line. Particulars: GLP-1R activity; CHO-K1/hGLP-1R/CRE-luciferase cells, 9 concentrations, four hours of incubation, Bright-Glo luminescence. On the procedure:
15,000 cells of a CHO-K1/hGLP-1R/CRE-luciferase cell line were seeded in a 96-well plate. A medium used herein was Ham’s F-12 Nutrient medium. The cells were incubated for 18 hours in a 5% CO2 incubator which was maintained at 37° C., and then treated with drugs. Each drug dispensed at 9 different concentrations was dissolved in a DMEM/F-12 + 1% FBS medium, and the cell line was treated with each of 100 µl thereof. After four hours of incubation, a Bright-Glo® luciferase assay system kit was used to add 30 µl of an assay reagent per well. A plate was stored at room temperature for 15 minutes, and then luminescence was measured using a SpectraMax M5 reader.
Broadly, the EC50 is the concentration that produces a half-maximal response. A high value points to weaker potency. The compound `O=C(O)c1ccc2nc(Cc3ccc(-c4cccc(OCc5ccc(C(F)(F)F)cc5F)n4)cc3)n(C[C@@H]3CCOC3)c2c1` [Example 36, (S)-2-(4-(6-((2-fluoro-4-(trifluoromethyl)benzyl)oxy)pyridin-2-yl)benzyl)-1-((tetrahydrofuran-3-yl)methyl)-1H-benzo[d]imidazole-6-carboxylic acid] gave an EC50 of 2.09 nM.
With `O=C(O)c1ccc2nc(Cc3ccc(-c4cccc(OCc5ccc(Cl)cc5F)n4)cc3)n(C[C@H]3CCCO3)c2c1` [Example 13, (R)-2-(4-(6-((4-chloro-2-fluorobenzyl)oxy)pyridin-2-yl)benzyl)-1-((tetrahydrofuran-2-yl)methyl)-1H-benzo[d]imidazole-6-carboxylic acid] the figure was 2.02 nM; with `CCn1cncc1Cn1c(Oc2ccc(-c3cccc(OCc4ccc(C#N)cc4F)n3)cc2)nc2ccc(C(=O)O)cc21` [Example 5, 2-(4-(6-((4-cyano-2-fluorobenzyl)oxy)pyridin-2-yl)phenoxy)-1-((1-ethyl-1H-imidazol-5-yl)methyl)-1H-benzo[d]imidazole-6-carboxylic acid], 0.016 nM.
In the case of `O=C(O)c1ccc2nc(Cc3ccc(-c4cccc(OCc5ccc(Cl)cc5F)n4)c(Cl)c3)n(C[C@@H]3CCOC3)c2c1` [Example 37, (S)-2-(3-chloro-4-(6-((4-chloro-2-fluorobenzyl)oxy)pyridin-2-yl)benzyl)-1-((tetrahydrofuran-3-yl)methyl)-1H-benzo[d]imidazole-6-carboxylic acid] it was 1.34 nM.
